How the values were obtained:
[1] = D-threo vs DL-threo methylphenidate vs placebo in patients in the context of ADD: objective tests and subjective observations; assay type: in vivo, human; conditions: for performance in objective tests: at the 6 hour time point, versus DL-threo racemate or placebo
Text: The present inventors have observed that in the context of ADD, D-threo methylphenidate has a longer duration of action than DL-methylphenidate of at least six hours.
Response by patients with cognitive deficiencies described herein is generally determined by two types of measurements: objective measures of a patient's ability to concentrate and remain focused on a task such as performing a math test; and subjective scores of a patient's performance.

[2] = cited from earlier work
[3] = children suffering from ADHD; Clin. Pharmacol. Ther. 52: 561-568 (1992); cited from earlier work

SMILES | performance in objective tests [1] | euphoric effect / potential for abuse ([2]; administered intravenously or through inhalation or ingestion) | undesirable side effects ([2]; use of the racemate) | pharmacodynamic activity / pharmacological effectiveness [3] | persistence of beneficial effects ([1]; D-threo isomer alone versus in combination with the L-threo isomer) | subjective observations: duration of beneficial effects ([1]; same patients, versus DL-threo racemate)
COC(=O)C(c1ccccc1)C1CCCCN1 (racemic) [DL-threo racemate, DL-threo-methylphenidate] | did not perform better after that time period than those who received a placebo | produces a euphoric effect | anorexia, weight loss, insomnia, dizziness and dysphoria |  |  | 
COC(=O)[C@@H](c1ccccc1)[C@@H]1CCCCN1 (single isomer, unassigned) [L isomer, L-threo-methylphenidate, reference compound] |  |  |  | apparently makes no significant contribution to the pharmacological effectiveness of the drug |  | 
COC(=O)[C@H](c1ccccc1)[C@H]1CCCCN1 [D-threo methylphenidate, D-threo-methylphenidate] | performed better in objective tests than patients who received the DL-threo racemate or a placebo |  |  | pharmacodynamic activity of DL-threo-methylphenidate resides in the D-threo isomer | persist for a longer period time when the D-threo isomer is administered alone than when it is administered in combination with the L-threo isomer | experienced beneficial effects of the drug for longer times than did those who received the DL-threo racemate

Reference: patent publication US6486177B2, “Methods for treatment of cognitive and menopausal disorders with D-threo methylphenidate” (Celgene Corporation, priority 1995, dated 2002)
